PMC9525908, “α-Crystallin chaperone mimetic drugs inhibit lens γ-crystallin aggregation: Potential role for cataract prevention” (The Journal of Biological Chemistry, 2022)
Where a chain is given by its changes, count along the chain named. Entries after “also recorded” stand apart in the source; their conditions may differ.

What was measured:
Assay type in all cases: biochemical
bovine gamma crystallins = assay: Screen: H2O2 and heat mediated aggregation of bovine gamma crystallins, turbidimetry at 600 nm; details: 500 μM compound, H2O2 with or without added thermal stress
Procedure: For the initial screen, a microtiter plate assay was developed in which bovine crystallins (2 mg/ml of 50 mM K3PO4 buffer, pH 7.2 [buffer A]) were exposed to H2O2 at varying concentrations (1–50 mM) for 12 to 36 h, upon which turbidity developed (at 50 mM H2O2 concentration) in both β- and γ-crystallins (Fig. 1, A and B). […] This was determined by turbidimetry at 600 nm (Fig. 1C) and confirmed using visual assessment of solution transparency over a fine text as well as the presence of cloudy aggregates visible by dark field microscopy (Fig. 1D). The drug:protein stoichiometric ratio was about 5:1. The wavelength of 600 nm was chosen to minimize interference by colored compounds, many of which absorb below 500 nm (Fig. 1E).
Wells were filled with 90 μl calf γ-crystallin-rich protein solution (pool 4 at 2 mg/ml) followed by 0.5 to 5.0 μl of drug (all 10 mM stock solution in DMSO) as supplied by the manufacturer and 10 μl H2O2 (450 mM stock solution in water) and sealed with sticky Applied Biosystems MicroAmp Clear Adhesive films (Life Technologies). Control wells received DMSO only. […] In order to quantitate the impact of the drugs on aggregation, a fitness plot was created (Fig. 1 C) that allowed us to identify wells with enhanced/worsening versus suppressed crystallin aggregation. In addition, aggregation in each well was also visually assessed by two independent “blinded” readers for the ability to read fine print through each well by placing the plates over small font text (Fig. 1D). Both machine and visual readouts were reconciled in order to increase robustness.

HγD = biological target: T1, HγD (Homo sapiens, UniProt P07320); assay: Thermal aggregation (72 °C) turbidity assay, recombinant HγD
T1 construct: made in house; host or cells: E. coli BL21(DE3) pLysS, pET3d vector
T1 sequence (P07320 1-174): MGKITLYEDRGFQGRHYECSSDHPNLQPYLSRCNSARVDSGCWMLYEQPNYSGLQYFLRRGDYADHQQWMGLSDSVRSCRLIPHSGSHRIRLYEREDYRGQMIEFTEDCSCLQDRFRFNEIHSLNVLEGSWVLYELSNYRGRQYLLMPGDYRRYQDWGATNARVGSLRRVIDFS
Procedure: For refinement of the aforementioned screen, these compounds were tested at concentrations varying from 50 to 500 μM and 1.5 mg/ml concentration of recombinant HγD, human gamma S (HγS), its deamidation mutants γS_N14, γS_N76, γS_N143 and its triple mutant γSTM (Fig. 1F). In addition, other drugs and compounds that tested positive in the initial screen were also included, such as escin (E), hematein (I), citric acid (CA), docusate sodium (DS), and sennoside A (S) (Fig. S1B). […] For a review, see the study by Roskamp et al. ([38]). […] Thus, drug C and drug G emerged as the strongest antidenaturation/aggregation and potential anticataract drugs. For the mechanistic studies below these two compounds together with either drug M, chosen mostly as negative control, or the entire set of six compounds were used for comparison purpose, whereby the words “drug” or “compound” are used interchangeably in the studies later.
(§1) For end-point assays, HγD and MγS (1 mg/ml, 100 μl) in 50 mM K3PO4 buffer (pH 7.2) in set of triplicates in transparent flat bottom 96-well plates were heated at 72 °C for 20 min in the presence and absence of selected drugs at varying concentrations. Absorbance was measured at 600 nm with a SpectraMax iD5 (Molecular Devices).
HγD protein (2.5 mg/ml buffer A) was incubated at 72 °C for 20 min without or with 100 or 400 μM drug G or C in buffer A. Final DMSO concentration was 5% in all samples. […] Therefore, samples with and without 400 μM drug G were chosen for identification of drug G-induced miscleavage sites upon digestion with 25:1 protein:trypsin ratio (sequencing grade modified trypsin; Promega) in buffer A. After 4 h, samples were frozen at −80 °C until processed for determination of miscleavage sites using proteomics analysis. LC–MS/MS analysis was performed on an Orbitrap Eclipse mass spectrometer (Thermo Fisher Scientific) coupled with a Waters nanoAcquity UPLC system (Waters) in total 90 min run using a linear gradient range from 0 to 42% solvent B (0.1% formic acid in acetonitrile) versus solvent A (0.1% formic acid in water) at a flow rate of 300 nl/min. MS1 full mass spectra were acquired in the Orbitrap mass analyzer at the resolution of 120 K. MS/MS tandem mass spectra were generated in the ion trap mass analyzer by collision-induced dissociation of peptide ions at a normalized collision energy of 35%. The resulting MS/MS spectra were searched against human gamma D protein database using Mass Matrix software (MassMatrix, Inc) with the mass errors of 10 ppm and 0.8 Da for MS1 and MS/MS scans, respectively. The oxidation of methionine was set for variable modifications, and three miscleavages were allowed for the search.
(§2) Final DMSO concentration was 5% including in control samples. Microtiter plates were first incubated for 10 min at 72 °C and reincubated for 10 more min. Absorbance was measured at both 10 and 20 min total incubation time.

Bovine γ-crystallins = assay: Thermal aggregation (72 °C) turbidity assay, bovine γ-crystallins (pool 4); details: for Thermal denaturation inhibitory activity in subscreen: 150 μM; for Thermal denaturation inhibitory activity in subscreen / % Suppression: 72 °C 20 min; for % Suppression: 75 μM protein, 125 μM or less inhibitor (1.7:1)
Procedure: Candidate compounds were rescreened using thermal denaturation upon heating at 72 °C for 20 min according to Chen et al. ([36]) in order to select for compounds with chaperone rather than antioxidant activity since a large number of the latter already exist in the cataract field ([37]).
(§3) For a review, see the study by Roskamp et al. ([38]). […] For the mechanistic studies below these two compounds together with either drug M, chosen mostly as negative control, or the entire set of six compounds were used for comparison purpose, whereby the words “drug” or “compound” are used interchangeably in the studies later.
All assays were carried out manually in CORNING #9017 Costar Assay 96-well plates. Wells were filled with 90 μl calf γ-crystallin-rich protein solution (pool 4 at 2 mg/ml) followed by 0.5 to 5.0 μl of drug (all 10 mM stock solution in DMSO) as supplied by the manufacturer and 10 μl H2O2 (450 mM stock solution in water) and sealed with sticky Applied Biosystems MicroAmp Clear Adhesive films (Life Technologies). Control wells received DMSO only. Plates were shaken for 2 min and incubated from 24 to 72 h in a culture room at 37 °C. […] A second reading was performed following a heat shock of 20 min at 72 °C as described by Chen et al. ([36]) in order to capture drugs with heat-resistant chaperone activity. In order to quantitate the impact of the drugs on aggregation, a fitness plot was created (Fig. 1 C) that allowed us to identify wells with enhanced/worsening versus suppressed crystallin aggregation. In addition, aggregation in each well was also visually assessed by two independent “blinded” readers for the ability to read fine print through each well by placing the plates over small font text (Fig. 1D). Both machine and visual readouts were reconciled in order to increase robustness.
as §2

WT-MγS = biological target: T2, WT-MγS (Mus musculus, UniProt O35486); assay: End-point heat-mediated turbidity assay, WT-MγS; details: 400 μM drug, 72 °C, protein above 0.5 mg/ml
T2 construct: made in house; host or cells: E. coli BL21(DE3) pLysS, pET17b vector
T2 sequence (O35486 1-178): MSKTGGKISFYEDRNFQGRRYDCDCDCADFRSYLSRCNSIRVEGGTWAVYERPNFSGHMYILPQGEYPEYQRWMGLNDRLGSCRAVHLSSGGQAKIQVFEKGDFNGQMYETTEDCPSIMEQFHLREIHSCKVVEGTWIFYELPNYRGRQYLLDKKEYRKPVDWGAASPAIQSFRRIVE
Procedure: as §1, with “Devices). […]” for “Devices).”
as §2

HγS = biological target: T3, HγS (Homo sapiens, UniProt P22914); assay: Thermal aggregation (72 °C, 20 min) turbidity assay, HγS; details: HγS; 75 μM protein, 125 μM or less inhibitor (1.7:1), 72 °C 20 min
T3 sequence (P22914 1-178): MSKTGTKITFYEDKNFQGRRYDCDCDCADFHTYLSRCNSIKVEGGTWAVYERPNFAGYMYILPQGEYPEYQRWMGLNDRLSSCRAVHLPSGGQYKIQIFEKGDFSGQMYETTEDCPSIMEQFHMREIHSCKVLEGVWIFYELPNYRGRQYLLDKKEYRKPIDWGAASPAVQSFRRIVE
From the text: as §3

HγS_N143D = biological target: T4, HγS_N143D (Homo sapiens, UniProt P22914, N144D); assay: Thermal aggregation (72 °C, 20 min) turbidity assay, HγS_N143D; details: HγS_N143D; 75 μM protein, 125 μM or less inhibitor (1.7:1), 72 °C 20 min
T4 sequence (P22914 1-178 N144D): T3 sequence (P22914 1-178) with N144D
From the text: as §3

Compound	Outcome in the library screen (effect on aggregation/turbidity at 600 nm) (bovine gamma crystallins)	also measured
Cc1c(C(=O)O)c(O)cc2c1C(=O)c1c(O)c(C3O[C@H](CO)[C@@H](O)[C@H](O)[C@H]3O)c(O)c(O)c1C2=O (stereo in doubt) [carmine]	no impact	
O=C(O)CC(O)(CC(=O)O)C(=O)O [CA, citric acid]	positive	
CCCCCCCCCCCCCCCCC(C(=O)O)C(O)(CC(=O)O)C(=O)O (centres unmarked) [drug A, agaric acid]		Effect on HγD aggregation at low protein (HγD; 400 μM drug, 72 °C): not; Effect on HγD at 2.0 mg/ml and 20 min (HγD; 400 μM drug, 72 °C, 20 min): suppressed; also recorded: protects; Effect on BGC aggregation at 2.0 mg/ml at 10 min (Bovine γ-crystallins; 400 μM drug, 72 °C, 10 min): improved BGC aggregation; also recorded: protects; Effect on MγS absorbance (WT-MγS): blocked absorbance; also recorded: protects
CCCCC(CC)COC(=O)CC(C(=O)OCC(CC)CCCC)S(=O)(=O)O (centres unmarked) [drug DS, docusate sodium]	positive	
CC1=C(CCC(=O)O)c2cc3[nH]c(cc4nc(cc5[nH]c(cc1n2)c(C)c5C(C)O)C(C)=C4C(C)O)c(C)c3CCC(=O)O (centres unmarked) [drug H, hematoporphyrin]	positive	Thermal denaturation inhibitory activity in subscreen (Bovine γ-crystallins): thermal denaturation inhibitory activity
O=C1C=C2CC3(O)COc4c(ccc(O)c4O)C3=C2C=C1O (centres unmarked) [drug I, hematein]	positive	
O=C(O)c1cc(O)c2c(c1)[C@H]([C@H]1c3cc(C(=O)O)cc(O)c3C(=O)c3c(O[C@@H]4O[C@H](CO)[C@@H](O)[C@H](O)[C@H]4O)cccc31)c1cccc(O[C@@H]3O[C@H](CO)[C@@H](O)[C@H](O)[C@H]3O)c1C2=O [drug S, sennoside A]	positive	
CCCCCCCCCCCCCCOS(=O)(=O)[O-].[Na+] [drug T, tetradecyl sulfate sodium]		% Suppression (HγS): 40%; % Suppression (HγS_N143D): 42%; Thermal denaturation inhibitory activity in subscreen (Bovine γ-crystallins): thermal denaturation inhibitory activity
C=CCCCCCCCCCCCC(O)CC(O)CO (centres unmarked) [drug V, avocadene]		Thermal denaturation inhibitory activity in subscreen (Bovine γ-crystallins): thermal denaturation inhibitory activity; % Suppression (Bovine γ-crystallins; Bovine γ-crystallins experiment 1): 36%; % Suppression (Bovine γ-crystallins; Bovine γ-crystallins experiment 2): 53%
O=C(O[C@@H]1Cc2c(O)cc(O)cc2O[C@@H]1c1cc(O)c(O)c(O)c1)c1cc(O)c(O)c(O)c1 [epigallocatechin gallate]	improved aggregation	
COc1ccc([C@@H]2CC(=O)c3c(O)cc(O)cc3O2)cc1O [hesperetin]	no impact	
CC(C)=CCC[C@@H](C)[C@H]1CC[C@@]2(C)C3=C(CC[C@]12C)[C@@]1(C)CC[C@H](O)C(C)(C)[C@@H]1CC3 [lanosterol]	no impact	
O=c1c(O)c(-c2ccc(O)cc2O)oc2cc(O)cc(O)c12 [morin]	no impact	
O=c1c(O)c(-c2ccc(O)c(O)c2)oc2cc(O)cc(O)c12 [quercetin]	worsened aggregation	
escin [drug E]	positive	
hemin	positive	
pool 1: purified high–molecular weight bovine α-crystallins, used as positive control		Inhibition of HγD aggregation by positive control (HγD; thermal aggregation): potently inhibit; Inhibition of pool 4 protein aggregation by positive control (Bovine γ-crystallins; thermal aggregation): potently inhibit
